The source of these data is patent publication US7432260B2, “Pyrimidine compounds” (Cyclacel Limted, priority 2002, dated 2008).

For the test, the target named is T1, ARK-2: aurora kinase-2 (aurora A kinase) (Homo sapiens, UniProt O14965).
T1 construct: purchased
The test is described as follows: Aurora-A (human) kinase assay. The test is classed as biochemical. Conditions: Table 2; 15 μM ATP; read-out: Kinase Inhibition IC50 ARK-2. How it is done:
Aurora-A (human) kinase assay. This was achieved by measurement of incorporation of radioactive phosphate from ATP into Kemptide substrate (LRRASLG), upon phosphorylation by commercially obtained aurora-A kinase. Assays were performed using 96-well plates and appropriate assay buffers (8 mM MOPS, 0.2 mM EDTA, pH 7.0), into which were added 5-10 ng of active enzyme with 200 μM substrate (Kemptide). […] Reactions were stopped by addition of 3% phosphoric acid, followed by filtration through p81 filterplates (Whatman Polyfiltronics, Kent, UK). After washing 5 times with 75 mM aq orthophosphoric acid and once in methanol, plates were dried, scintillant added and incorporated radioactivity measured in a scintillation counter (TopCount, Packard Instruments, Pangbourne, Berks, UK). Compounds for kinase assay were made up as 10 mM stocks in DMSO and diluted into 10% DMSO in assay buffer.

T1 sequence (O14965 whole entry): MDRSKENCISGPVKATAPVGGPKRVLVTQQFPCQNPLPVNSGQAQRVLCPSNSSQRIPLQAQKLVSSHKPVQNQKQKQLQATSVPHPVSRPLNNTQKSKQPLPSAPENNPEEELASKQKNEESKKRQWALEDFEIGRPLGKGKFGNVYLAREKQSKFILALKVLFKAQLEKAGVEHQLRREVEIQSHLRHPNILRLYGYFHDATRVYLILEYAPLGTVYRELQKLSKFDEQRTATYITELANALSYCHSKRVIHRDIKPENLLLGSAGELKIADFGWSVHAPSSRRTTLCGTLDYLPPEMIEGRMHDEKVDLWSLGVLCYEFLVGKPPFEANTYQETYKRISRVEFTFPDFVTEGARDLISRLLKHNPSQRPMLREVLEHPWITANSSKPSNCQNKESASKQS

As for `CC[C@@H](N)C(=O)Nc1nc(C)c(-c2ccnc(Nc3cccc([N+](=O)[O-])c3)n2)s1` [Compound 16, (2R)-2-Amino-N-{4-methyl-5-[2-(3-nitro-phenylamino)-pyrimidin-4-yl]-thiazol-2-yl}-butyramide], the IC50 was found to be 2800 nM.

Broadly, the IC50 is the midpoint of a concentration-inhibition curve.
